Counter-ions that a name gives are not always drawn.
Tests used:
[1] = target: T1, progesterone receptor-B (Homo sapiens, UniProt P06401); experiment: Progesterone receptor-B transactivation, antagonistic mode (inhibition of luciferase transactivation by inducer, CHO cells); type: cell-based; details: for Emax: CHO, read-out: PRBant Eff (%); for Emax / PRBant Eff (%): intrinsic antagonistic activity, percentage of effect of standard antagonist (6β,11β,17β)-11-[4-(dimethylamino)phenyl]-4′,5′-dihydro-6-methylspiro[estra-4,9-diene-17,2′(3′H)-furan]-3-one, 0.1 nM inducer; for EC50: in the presence of 0.1 nM inducer (16α)-16-ethyl-21-hydroxy-19-norpregn-4-ene-3,20-dione, read-out: PRBant EC50
T1 sequence (P06401 1-933): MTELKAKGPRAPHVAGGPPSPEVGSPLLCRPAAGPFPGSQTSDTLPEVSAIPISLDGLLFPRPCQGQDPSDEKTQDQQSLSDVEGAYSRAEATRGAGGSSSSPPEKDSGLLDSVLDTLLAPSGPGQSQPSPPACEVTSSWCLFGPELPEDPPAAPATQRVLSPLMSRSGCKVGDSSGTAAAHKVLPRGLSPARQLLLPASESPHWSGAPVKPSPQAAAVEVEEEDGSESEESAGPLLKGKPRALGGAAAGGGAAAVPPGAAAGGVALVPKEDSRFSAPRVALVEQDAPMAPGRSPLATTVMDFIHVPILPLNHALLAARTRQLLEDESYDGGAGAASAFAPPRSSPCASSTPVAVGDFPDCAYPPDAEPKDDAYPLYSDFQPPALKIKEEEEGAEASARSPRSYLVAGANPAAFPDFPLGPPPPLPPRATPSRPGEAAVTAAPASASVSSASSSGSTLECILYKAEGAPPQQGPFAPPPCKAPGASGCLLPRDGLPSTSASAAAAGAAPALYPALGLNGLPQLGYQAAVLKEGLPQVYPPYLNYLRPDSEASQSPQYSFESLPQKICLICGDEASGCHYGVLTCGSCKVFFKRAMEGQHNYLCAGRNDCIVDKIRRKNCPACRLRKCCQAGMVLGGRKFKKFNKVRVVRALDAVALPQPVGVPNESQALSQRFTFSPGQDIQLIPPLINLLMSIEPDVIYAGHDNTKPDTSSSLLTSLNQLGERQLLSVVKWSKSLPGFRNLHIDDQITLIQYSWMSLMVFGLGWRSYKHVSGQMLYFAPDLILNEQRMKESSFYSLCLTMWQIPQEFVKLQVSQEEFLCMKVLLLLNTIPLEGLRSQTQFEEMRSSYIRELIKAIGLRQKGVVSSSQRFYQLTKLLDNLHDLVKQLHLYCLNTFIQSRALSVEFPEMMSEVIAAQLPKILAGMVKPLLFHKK
Protocol: In the antagonistic mode, testing must result in an intrinsic activity of between about 85% and about 15% of the maximal activity when (6β,11β,17β)-11-[4-(dimethylamino)phenyl]-4′,5′-dihydro-6-methylspiro[estra-4,9-diene-17,2′(3′H)-furan]-3-one is used as a reference.
(§1) The progestagenic activity of a compound of the invention (EC50 and intrinsic agonistic activity) was determined in an in vitro bioassay of Chinese hamster ovary (CHO) cells as described by W. G. E. J. Schoonen et al. (Anal. Biochem. 261 (1998), 222-224). […] The efficacy of the antagonistic effect was expressed as the percentage of the effect produced by a standard antagonist, (6β,11β,17β)-11-[4-(dimethylamino)phenyl]-4′,5′-dihydro-6-methylspiro[estra-4,9-diene-17,2′(3′H)-furan]-3-one.
(§2) It will be recognized by those skilled in the art that, in the setting described above, the EC50 determined is more or less absolute and depends on the intrinsic property of the tested compound itself, however, the IC50 depends on the amount and agonistic EC50 of the inducer as well as on the intrinsic property of the tested compound itself. Thus, with the same amount of inducer, a relatively strong antagonist will be able to produce a measurable IC50 whereas a relatively weak antagonist may fail to produce a detectable result.

[2] = target: T1, progesterone receptor-B; experiment: Progesterone receptor-B transactivation, agonistic mode (CHO cells, luciferase); type: cell-based; details: for EC50: CHO cells, agonistic mode, read-out: PRBagoEC50; for Emax: CHO, read-out: PRBago Eff (%); for Emax / PRBago Eff (%): intrinsic agonistic activity, relative to reference (16α)-16-ethyl-21-hydroxy-19-norpregn-4-ene-3,20-dione
Description: For selecting compounds of the subject invention with a mixed modulating effect on the progesterone receptor, testing in the agonistic mode must result in an intrinsic activity of between about 15% and about 85% of the maximal activity when (16α)-16-ethyl-21-hydroxy-19-norpregn-4-ene-3,20-dione is used as a reference. Moreover, this maximal agonistic activity should be reached at a concentration of 10^−6 or less, and preferably at a concentration of 10^−8 or less.
as §1, §2

SMILES	Emax [1]	EC50 [1]	EC50 [2]	Emax [2]	PRBant Eff (%) ([1]; hydrochloride)	PRBago Eff (%) [2]	PRBant Eff (%) [1]
C[C@@H]1C[C@@H]2C(=C3CCC(=O)C=C31)[C@@H](c1ccc(-c3cccnc3)cc1)C[C@@]1(C)[C@H]2C[C@@H](C)[C@@H]1C(=O)C1CC1 [Example 26, (6β,11β,16α,17β)-17-cyclopropylcarbonyl-6,16-dimethyl-11-[4-(3-pyridinyl)-phenyl]estra-4,9-dien-3-one]	17%	2.75 nM	0.809 nM	46%			
C[C@@H]1C[C@H]2[C@@H]3CCC4=CC(=NO)CCC4=C3[C@@H](c3ccc(-c4cccnc4)cc3)C[C@]2(C)[C@H]1C(=O)C1CC1 [Example 22, (11β,16α,17β)-17-cyclopropylcarbonyl-16-methyl-11-[4-(3-pyridinyl)-phenyl]estra-4,9-dien-3-one 3-oxime]	32%	1.47 nM	0.64 nM	43%			
C[C@@H]1C[C@H]2[C@@H]3CCC4=CC(=O)CCC4=C3[C@@H](c3ccc(-c4cnc5ccccc5c4)cc3)C[C@]2(C)[C@H]1C(=O)C1CC1 [Example 7, (11β,16α,17β)-17-cyclopropylcarbonyl-16-methyl-11-[4-(3-quinolidinyl)phenyl]estra-4,9-dien-3-one]	24%	3.14 nM	1 nM	50%			
CC12CC(c3ccc(-c4cccnc4)cc3)C3=C4CCC(=O)C=C4CCC3C1CCC21CCCC1=O (stereo not drawn) [Example 25, (11β)-11-[4-(3-pyridinyl)phenyl]-17,24-cyclo-19,21-dinorchola-4,9-diene-3,20-dione hydrochloride]		1.1 nM	0.48 nM		66%	17%	
C[C@@H]1C[C@H]2[C@@H]3CCC4=CC(=O)CCC4=C3[C@@H](c3ccc(-c4ccc(Cl)nc4)cc3)C[C@]2(C)[C@H]1C(=O)C1CC1 [Example 4, (11β,16α,17β)-11-[4-(6-chloropyridin-3-yl)phenyl]-17-cyclopropyl-carbonyl-16-methylestra-4,9-dien-3-one]	43%	0.47 nM	1.1 nM	46.5%			
C[C@@H]1C[C@H]2[C@@H]3CCC4=CC(=O)CCC4=C3[C@@H](c3ccc(-c4ccnnc4)cc3)C[C@]2(C)[C@H]1C(=O)C1CC1 [Example 8, (11β,16α,17β)-17-cyclopropylcarbonyl-16-methyl-11-[4-(4-pyridazinyl)phenyl]estra-4,9-dien-3-one]	37%	3.64 nM	0.36 nM	50.5%			
C[C@@H]1C[C@H]2[C@@H]3CCC4=CC(=O)CCC4=C3[C@@H](c3ccc(-c4ccccn4)cc3)C[C@]2(C)[C@H]1C(=O)C1CC1 [Example 10, (11β,16α,17β)-17-cyclopropylcarbonyl-16-methyl-11-[4-(2-pyridinyl)phenyl]estra-4,9-dien-3-one]	32.5%	14.8 nM	2.6 nM	49.2%			
CC12CC(c3ccc(-c4cccnc4)cc3)C3=C4CCC(=O)C=C4CCC3C1CCC21CCCC1=O (stereo not drawn) [Example 23, (11β)-11-[4-(3-pyridinyl)phenyl]-17,24-cyclo-19,21-dinorchola 4,9-diene-3,20-dione]	70.8%	0.325 nM	0.29 nM	17%			
COc1ccc(-c2ccc([C@H]3C[C@]4(C)[C@@H](C(=O)C5CC5)CC[C@H]4[C@@H]4CCC5=CC(=O)CCC5=C43)cc2)cn1 [Example 19, (11β,17β)-17-cyclopropylcarbonyl-11-[4-(6-methoxypyridin-3-yl)phenyl]estra-4,9-dien-3-one]	57%	0.427 nM	0.51 nM	28.3%			
C=C[C@@H]1C[C@H]2[C@@H]3CCC4=CC(=O)CCC4=C3[C@@H](c3ccc(-c4cccnc4)cc3)C[C@]2(C)[C@H]1C(=O)C1CC1 [Example 13, (11β,16α,17β)-17-cyclopropylcarbonyl-16-ethenyl-11-[4-(3-pyridinyl)phenyl]estra-4,9-dien-3-one]	38%	0.61 nM	0.66 nM	46.8%			
C[C@]12C[C@H](c3ccc(-c4cccnc4)cc3)C3=C4CCC(=O)C=C4CC[C@H]3[C@@H]1CC[C@]2(C)C(=O)C1CC1 [Example 20, (11β,17β)-17-cyclopropylcarbonyl-17-methyl-11-[4-(3-pyridinyl)-phenyl]estra-4,9-dien-3-one]	58%	0.13 nM	0.49 nM	37.5%			
C[C@@H]1C[C@H]2[C@@H]3CCC4=CC(=O)CCC4=C3[C@@H](c3ccc(-c4cnccn4)cc3)C[C@]2(C)[C@H]1C(=O)C1CC1 [Example 9, (11β,16α,17β)-17-cyclopropylcarbonyl-16-methyl-11-[4-(pyrazin-2-yl)phenyl]estra-4,9-dien-3-one]	35%	1.3 nM	1.13 nM	54%			
C[C@]12C[C@H](c3ccc(-c4cccnc4)cc3)C3=C4CCC(=O)C=C4CC[C@H]3[C@@H]1C[C@@H](/C=C/c1ccccc1)[C@@H]2C(=O)C1CC1 [Example 14, [11β,16α(E),17β]-17-cyclopropylcarbonyl-16-(2-phenylethenyl)-11-[4-(3-pyridinyl)phenyl]estra-4,9-dien-3-one]	34.5%	29 nM	5.7 nM	49.8%			
C[C@]12C[C@H](c3ccc(-c4cccnc4)cc3)C3=C4CCC(=O)C=C4CC[C@H]3[C@@H]1C[C@H]1C[C@]12C(=O)C1CC1 [Example 21, (11β,16α,17β)-17-cyclopropylcarbonyl-16,17-dihydro-11-[4-(3-pyridinyl)phenyl]-3′H-cyclopropa[16,17]estra 4,9,16-trien-3-one]	58%	1.4 nM	2 nM	18%			
C[C@@H]1C[C@H]2[C@@H]3CCC4=CC(=O)CCC4=C3[C@@H](c3ccc(-c4cccnc4)cc3)C[C@]2(C)[C@H]1C(=O)C1CC1.Cl [Example 2, (11β,16α,17β)-17-cyclopropylcarbonyl-16-methyl-11-[4-(3-pyridinyl)-phenyl]estra-4,9-dien-3-one hydrochloride]		3.3 nM	0.34 nM			44.5%	47%
C[C@@H]1C[C@H]2[C@@H]3CCC4=CC(=O)CCC4=C3[C@@H](c3ccc(-c4cccnc4)cc3)C[C@]2(C)[C@H]1C(=O)C1CC1 [Example 1, (11β,16α,17β)-17-cyclopropylcarbonyl-16-methyl-11-[4-(3-pyridinyl)-phenyl]estra-4,9-dien-3-one]	46.4%	0.267 nM	0.2 nM	49.2%			

Source: patent US7691836B2, “Progesterone receptor modulators” (N.V. Organon, priority 2004, dated 2010)
